In the oligonucleotide strings, read from the 5' end, every base follows the letter of its sugar. An asterisk marks phosphorothioate; unmarked linkages are phosphodiester. Other units and linkages are bracketed, terminal groups are in braces. A string of capitals states the bases alone. d = 2'-deoxy (DNA); m = 2'-O-methyl
Molecular target: T1, human TLR9 (Homo sapiens, UniProt Q9NR96)
T1 construct: HA; host or cells: 293XL-hTLR9-HA (HEK293)
T1 sequence (Q9NR96 26-1032): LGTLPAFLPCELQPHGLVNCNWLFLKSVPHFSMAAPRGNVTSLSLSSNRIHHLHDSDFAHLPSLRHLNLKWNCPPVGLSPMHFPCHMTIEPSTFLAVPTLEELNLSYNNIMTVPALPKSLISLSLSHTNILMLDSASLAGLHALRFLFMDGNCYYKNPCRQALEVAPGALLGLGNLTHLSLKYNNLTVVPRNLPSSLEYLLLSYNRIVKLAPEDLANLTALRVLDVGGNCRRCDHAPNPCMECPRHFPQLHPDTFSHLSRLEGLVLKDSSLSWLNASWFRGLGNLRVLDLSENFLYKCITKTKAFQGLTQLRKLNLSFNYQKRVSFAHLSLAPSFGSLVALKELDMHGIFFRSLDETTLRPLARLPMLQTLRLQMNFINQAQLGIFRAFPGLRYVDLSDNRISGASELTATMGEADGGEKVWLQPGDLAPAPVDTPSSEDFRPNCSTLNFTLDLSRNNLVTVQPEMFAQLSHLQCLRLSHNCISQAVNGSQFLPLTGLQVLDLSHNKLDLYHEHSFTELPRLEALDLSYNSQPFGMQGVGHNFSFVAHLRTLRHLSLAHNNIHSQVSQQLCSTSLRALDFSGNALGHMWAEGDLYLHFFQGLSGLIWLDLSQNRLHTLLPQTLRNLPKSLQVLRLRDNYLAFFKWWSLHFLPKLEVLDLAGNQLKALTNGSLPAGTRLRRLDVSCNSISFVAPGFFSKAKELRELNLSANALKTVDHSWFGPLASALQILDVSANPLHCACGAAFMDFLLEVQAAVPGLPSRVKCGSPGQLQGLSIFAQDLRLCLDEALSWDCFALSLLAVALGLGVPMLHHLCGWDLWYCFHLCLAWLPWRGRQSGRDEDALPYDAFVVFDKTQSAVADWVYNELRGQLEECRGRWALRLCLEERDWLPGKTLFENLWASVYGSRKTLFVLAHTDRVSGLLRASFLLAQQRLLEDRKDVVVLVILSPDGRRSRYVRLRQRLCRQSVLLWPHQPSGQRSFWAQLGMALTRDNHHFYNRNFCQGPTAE
Assay: HEK-TLR9 NF-κB-luciferase reporter, ODN2006 stimulation
Assay type: cell-based
Details: for TLR9 100 nM (averaged NF-κB-Luciferase level relative to ODN2006 condition): ASO 100 nM; for TLR9 100 nM (averaged NF-κB-Luciferase level relative to ODN2006 condition) / TLR9 500 nM (averaged NF-κB-Luciferase level relative to ODN2006 condition): relative to ODN2006 only, given as fraction; for TLR9 500 nM (averaged NF-κB-Luciferase level relative to ODN2006 condition): ASO 500 nM; for TLR9-500 nM: averaged NF-κB-Luciferase relative to ODN2006: 500 nM ASO 45 min, then 200 nM ODN2006 overnight, percentage of ODN2006 only

Row | Substance | TLR9 100 nM (averaged NF-κB-Luciferase level relative to ODN2006 condition) | TLR9 500 nM (averaged NF-κB-Luciferase level relative to ODN2006 condition) | also measured
1 | CCACATCCTGTGGCTC (antisense; LNA-modified, pattern not given here) [CAMSAP1-2906 LNA V1] | 0.338 | 0.337 | 
2 | GAAAGGTTATGCAAGG (antisense; LNA-modified, pattern not given here) [CTNN2B-916 LNA KL] | 0.748 | 0.606 | 
3 | AACCCCTTTCACCATC (antisense; LNA-modified, pattern not given here) [MB21D1-689 LNA KL] | 0.586 | 0.076 | 
4 | CGTATTATAGCCGATT (antisense; LNA-modified, pattern not given here) [NC1 LNA PS 3-10-3] | 0.933 | 0.558 | 
5 | AGGACTCCAGATGTTT (antisense; LNA-modified, pattern not given here) [HPRT LNA pos cont] | 0.816 | 0.511 | 
6 | mU*mA*mU*mU*mU*C*C*A*C*A*T*G*C*C*C*mA*mG*mU*mG*mU (mU*mA*mU*mU*mU*dC*dC*dA*dC*dA*dT*dG*dC*dC*dC*mA*mG*mU*mG*mU; antisense) [[CDKN2B-AS1]627] |  |  | TLR9-500 nM: averaged NF-κB-Luciferase relative to ODN2006 (HEK-TLR9): 71.20%
7 | AGTGTTGAGATACTCG (antisense; LNA-modified, pattern not given here) [EGFR-3652 LNA KL] | 0.982 | 0.540 | 
8 | TCCGCCCAAAGGGAAC (antisense; LNA-modified, pattern not given here) [HPRT LNA-1027 KL] | 0.876 | 0.599 | 
9 | TCTTCATCGGCCCTGC (antisense; LNA-modified, pattern not given here) [CAMSAP1-2112 LNA V1] | 0.921 | 0.445 | 
10 | CGGCCTCGGAAGCTCT (antisense; LNA-modified, pattern not given here) [MB21D1-168 LNA V1] | 0.218 | 0.116 | 
11 | AAAGGACTGAGGAAAG (antisense; LNA-modified, pattern not given here) [CAMSAP1-6273 LNA KL] | 0.780 | 0.185 | 
12 | CTGCAGCTTCCTTGTC (antisense; LNA-modified, pattern not given here) [CTNN2B-2136 LNA V1] | 0.358 | 0.263 | 
13 | mA*mG*mU*mG*mG*C*A*C*A*T*A*C*C*A*C*mA*mC*mC*mC*mU (AGUGGCACATACCACACCCU; antisense; sugars from the 5' end m5 d10 m5, all phosphorothioate, methylation of C not given here) [[CDKN2B-AS1]495] |  |  | TLR9-500 nM: averaged NF-κB-Luciferase relative to ODN2006 (HEK-TLR9): 86.07%
14 | CCTTGCACGTGGCTTC (antisense; LNA-modified, pattern not given here) [EGFR-1013 LNA V1] | 0.814 | 0.519 | 
15 | mA*mA*mG*mC*mA*G*T*C*T*C*C*A*T*G*T*mC*mC*mC*mA*mG (mA*mA*mG*mC*mA*dG*dT*dC*dT*dC*dC*dA*dT*dG*dT*mC*mC*mC*mA*mG; antisense) [[CDKN2B-AS1]2236] |  |  | TLR9-500 nM: averaged NF-κB-Luciferase relative to ODN2006 (HEK-TLR9): 69.71%
16 | CACTTCGTGGGGTCCT (antisense; LNA-modified, pattern not given here) [HPRT LNA-664 V1] | 0.215 | 0.074 | 

Row | Substance | TLR9 100 nM (averaged NF-κB-Luciferase level relative to ODN2006 condition) | TLR9 500 nM (averaged NF-κB-Luciferase level relative to ODN2006 condition) | also measured
17 | GACTATACGCGCAATA (antisense; LNA-modified, pattern not given here) [NC5 LNA PS 3-10-3] | 0.784 | 0.403 | 
18 | ACACTTCGTGGGGTCCTTTT (antisense; 2'-MOE modified, pattern not given here) [HPRT-663 MOE] |  |  | inhibition of TLR9, 2′MOE ASOs (in words) (HEK-TLR9, 100 nM MOE ASO 45 min, 200 nM ODN2006 (FIG. 30)): stronger inhibitor than 664/665 and 666 ASOs; TLR9 100 nM (MOE-modified ASO at 100 nM, averaged NF-κB-Luciferase relative to ODN2006 condition): 0.114; TLR9 500 nM (MOE-modified ASO at 500 nM, averaged NF-κB-Luciferase relative to ODN2006 condition): 0.226
19 | ACGTTCAGTCCTGTCC (antisense; LNA-modified, pattern not given here) [HPRT LNA-294 V1] | 0.427 | 0.198 | 
20 | CCCACTTGGCAGACCA (antisense; LNA-modified, pattern not given here) [CTNN2B-1576 LNA V1] | 0.381 | 0.656 | 
21 | GTCAAGGGCATATCCT (antisense; LNA-modified, pattern not given here) [HPRT LNA-732 KL] | 0.844 | 0.387 | 
22 | mA*mG*mC*mA*mG*T*C*T*C*C*A*T*G*T*C*mC*mC*mA*mG*mG (AGCAGTCTCCATGTCCCAGG; antisense; sugars from the 5' end m5 d10 m5, all phosphorothioate, methylation of C not given here) [[CDKN2B-AS1]2235] |  |  | TLR9-500 nM: averaged NF-κB-Luciferase relative to ODN2006 (HEK-TLR9): 73.18%
23 | ACCACGTCTGCTCTAA (antisense; LNA-modified, pattern not given here) [CAMSAP1-1635 LNA KL] | 0.842 | 0.162 | 
24 | AATCCAACAAAGTCTG (antisense; LNA-modified, pattern not given here) [HPRT LNA-692 KL] | 1.050 | 0.529 | 
25 | TGTCCTTGCACGTGGC (antisense; LNA-modified, pattern not given here) [EGFR-1016 LNA V1] | 1.020 | 0.853 | 
26 | TCCATACCCAAGGCAT (antisense; LNA-modified, pattern not given here) [CTNN2B-2446 LNA V1] | 1.075 | 0.951 | 
27 | CTTCGTGGGGTCCTTT (antisense; LNA-modified, pattern not given here) [HPRT LNA-662 V1] | 0.557 | 0.240 | 
28 | TGACTGTCTTGAGGGT (antisense; LNA-modified, pattern not given here) [MB21D1-1483 LNA KL] | 1.245 | 0.290 | 
29 | GGTCATTACAATAGCT (antisense; LNA-modified, pattern not given here) [HPRT LNA-475 KL] | 0.438 | 0.604 | 
30 | mG*mU*mG*mU*mC*C*T*T*C*A*T*G*C*T*T*mU*mG*mG*mA*mU (GUGUCCTTCATGCTTUGGAU; antisense; sugars from the 5' end m5 d10 m5, all phosphorothioate, methylation of C not given here) [[CDKN2B-AS1]1415] |  |  | TLR9-500 nM: averaged NF-κB-Luciferase relative to ODN2006 (HEK-TLR9): 98.99%
31 | GTCCTTGCACGTGGCT (antisense; LNA-modified, pattern not given here) [EGFR-1015 LNA V1] | 1.310 | 0.722 | 
32 | TCTTGGCTTCGTGGAG (antisense; LNA-modified, pattern not given here) [MB21D1-521 LNA V1] | 1.251 | 0.595 | 

Source: patent publication US20240384268A1, “Oligonucleotides” (Hudson Institute of Medical Research, priority 2021, published 2024)
